In brackets after ≈: the same amount, converted by molar mass. Activity calls are given as the source filed them. The calls are words filed in the database; no cut-off is given here.
Experiments:
Escherichia coli [1] = assay: Bactericidal activity against Escherichia coli ATCC BAA-2523 assessed as bacterial count at 8 times MIC measured after 24 hrs by time-kill assay; format: functional, organism-based
Escherichia coli [2] = assay: Antibacterial activity against Escherichia coli clinical isolate 19-2 assessed as inhibition of bacterial growth incubated for 18 to 24 hrs by broth microdilution method; format: functional; conditions: time 18-24 hrs
Escherichia coli [3] = assay: Potentiation of rifampicin induced antibacterial activity in Escherichia coli ATCC 25922 assessed as rifampicin MIC at 0.5 ug/ml incubated for 18 to 24 hrs by broth microdilution method (reference value: 2 ug/ml); format: functional; conditions: dose 0.5 µg/ml, time 18-24 hrs
Escherichia coli [4] = assay: Potentiation of rifampicin induced antibacterial activity in Escherichia coli ATCC 25922 assessed as rifampicin MIC at 4 ug/ml incubated for 18 to 24 hrs by broth microdilution method (reference value: 2 ug/ml); format: functional; conditions: dose 4 µg/ml, time 18-24 hrs
[5] = Plasma protein binding in human at 2 uM incubated for 6 hrs by equilibrium dialysis based LC-MS/MS analysis; format: ADME, cell-free; conditions: read-out: PPB (converted)
[6] = Acute toxicity in ICR mouse assessed as animal death at 16 mg/kg, iv administered into tail vein and measured after 0.5 to 1 mins; format: organism-based; conditions: in vivo, time 0.5-1 min
Escherichia coli [7] = assay: Antibacterial activity against Escherichia coli ATCC 25922 assessed as inhibition of bacterial growth incubated for 18 to 24 hrs by broth microdilution method; format: functional; conditions: time 18-24 hrs
Pseudomonas aeruginosa [8] = assay: Antibacterial activity against Pseudomonas aeruginosa ATCC 27853 assessed as inhibition of bacterial growth incubated for 18 to 24 hrs by broth microdilution method; format: functional; conditions: time 18-24 hrs
Acinetobacter baumannii = assay: Antibacterial activity against oxacillinase-27 producing Acinetobacter baumannii NCTC 13304 assessed as inhibition of bacterial growth incubated for 18 to 24 hrs by broth microdilution method; format: functional; conditions: time 18-24 hrs
Escherichia coli [9] = assay: Potentiation of rifampicin induced antibacterial activity in Escherichia coli ATCC 25922 assessed as rifampicin MIC at 2 ug/ml incubated for 18 to 24 hrs by broth microdilution method (reference value: 2 ug/ml); format: functional; conditions: dose 2 µg/ml, time 18-24 hrs
Klebsiella pneumoniae [10] = assay: Antibacterial activity against carbapenem resistant Klebsiella pneumoniae clinical isolate 19-15 assessed as inhibition of bacterial growth incubated for 18 to 24 hrs by broth microdilution method; format: functional; conditions: time 18-24 hrs
Escherichia coli [11] = assay: Antibacterial activity against KPC producing Escherichia coli ATCC BAA-2340 assessed as inhibition of bacterial growth incubated for 18 to 24 hrs by broth microdilution method; format: functional; conditions: time 18-24 hrs
[12] = Half life in overnight fasted Sprague-Dawley rat at 4 mg/kg, ip measured for 24 hrs by LC-MS/MS analysis; format: ADME, organism-based; conditions: in vivo
Klebsiella pneumoniae [13] = assay: Antibacterial activity against KPC producing Klebsiella pneumoniae ATCC BAA-1705 assessed as inhibition of bacterial growth incubated for 18 to 24 hrs by broth microdilution method; format: functional; conditions: time 18-24 hrs
Escherichia coli [14] = assay: Potentiation of rifampicin induced antibacterial activity in Escherichia coli ATCC 25922 assessed as rifampicin MIC at 0.004 ug/ml incubated for 18 to 24 hrs by broth microdilution method (reference value: 2 ug/ml); format: functional; conditions: dose 0.004 µg/ml, time 18-24 hrs
Escherichia coli [15] = assay: Potentiation of rifampicin induced antibacterial activity in Escherichia coli ATCC 25922 assessed as rifampicin MIC at 0.015 ug/ml incubated for 18 to 24 hrs by broth microdilution method (reference value: 2 ug/ml); format: functional; conditions: dose 0.015 µg/ml, time 18-24 hrs
[16] = Acute toxicity in ICR mouse administered into tail vein and measured twice daily over 1 week; conditions: in vivo, route iv, time 1 weeks
Staphylococcus aureus = assay: Antibacterial activity against Staphylococcus aureus ATCC 29213 assessed as inhibition of bacterial growth incubated for 18 to 24 hrs by broth microdilution method; format: functional; conditions: time 18-24 hrs
Escherichia coli [17] = assay: Bactericidal activity against Escherichia coli ATCC BAA-2523 assessed as reduction in bacterial count at 0.5 to 2 times MIC measured after 2 to 24 hrs by time-kill assay; format: functional, organism-based; conditions: time 2-24 hrs
Klebsiella pneumoniae [18] = assay: Antibacterial activity against carbapenem resistant Klebsiella pneumoniae clinical isolate 19-17 assessed as inhibition of bacterial growth incubated for 18 to 24 hrs by broth microdilution method; format: functional; conditions: time 18-24 hrs
[19] = AUC (0 to infinity) in overnight fasted Sprague-Dawley rat at 4 mg/kg, ip measured for 24 hrs by LC-MS/MS analysis; format: ADME, organism-based; set-up: dose 4 mg/kg, time 24 hrs, route ip; conditions: in vivo
Escherichia coli [20] = assay: Potentiation of rifampicin induced antibacterial activity in Escherichia coli ATCC 25922 assessed as rifampicin MIC at 0.03 ug/ml incubated for 18 to 24 hrs by broth microdilution method (reference value: 2 ug/ml); format: functional; conditions: dose 0.03 µg/ml, time 18-24 hrs
[21] = tested on: Staphylococcus epidermidis; assay: Antibacterial activity against methicillin resistant Staphylococcus epidermidis clinical isolate 19-5 assessed as inhibition of bacterial growth incubated for 18 to 24 hrs by broth microdilution method; format: functional; conditions: time 18-24 hrs
[22] = Selectivity index, ratio of IC50 for cytotoxicity against human HK-2 cells to MIC for antibacterial activity against Escherichia coli ATCC BAA-2523; format: toxicity, cell-based
Escherichia coli [23] = assay: Antibacterial activity against Escherichia coli ATCC BAA-2523 infected in ICR mouse assessed as mouse survival at 4 to 8 mg/kg, iv administered into tail vein and measured daily for 7 days; format: functional, organism-based; conditions: dose 4-8 mg/kg, time 7.0 day
[24] = Cytotoxicity against human HK-2 cells assessed as inhibition of cell growth incubated for 72 hrs by CCK-8 assay; format: toxicity, cell-based
Escherichia coli [25] = assay: Potentiation of rifampicin induced antibacterial activity in Escherichia coli ATCC 25922 assessed as rifampicin MIC at 1 ug/ml incubated for 18 to 24 hrs by broth microdilution method (reference value: 2 ug/ml); format: functional; conditions: dose 1 µg/ml, time 18-24 hrs
Lipopolysaccharide (LPS) = assay: Binding affinity to LIP-1 sensor chip immobilized Escherichia coli LPS assessed as increase in resonance units measured for 600 secs by SPR analysis; conditions: dose 0.125-4 µM, time 600.0 sec
[26] = tested on: Staphylococcus epidermidis; assay: Antibacterial activity against methicillin resistant Staphylococcus epidermidis clinical isolate 19-6 assessed as inhibition of bacterial growth incubated for 18 to 24 hrs by broth microdilution method; format: functional; conditions: time 18-24 hrs
Pseudomonas aeruginosa [27] = assay: Antibacterial activity against carbapenem resistant Pseudomonas aeruginosa clinical isolate 19-3 assessed as inhibition of bacterial growth incubated for 18 to 24 hrs by broth microdilution method; format: functional; conditions: time 18-24 hrs
Escherichia coli [28] = assay: Antibacterial activity against Escherichia coli ATCC BAA-2523 assessed as inhibition of bacterial growth incubated for 18 to 24 hrs by broth microdilution method; format: functional; conditions: time 18-24 hrs
[29] = Acute toxicity in ICR mouse assessed as adverse effects at 8.19 mg/kg, iv administered into tail vein and measured twice daily over 1 week; format: organism-based; conditions: in vivo, 168 h, time 1 weeks
Escherichia coli [30] = assay: Potentiation of rifampicin induced antibacterial activity in Escherichia coli ATCC 25922 assessed as rifampicin MIC at 0.008 ug/ml incubated for 18 to 24 hrs by broth microdilution method (reference value: 2 ug/ml); format: functional; conditions: dose 0.008 µg/ml, time 18-24 hrs
Escherichia coli [31] = assay: Bactericidal activity against Escherichia coli ATCC BAA-2523 assessed as reduction in bacterial count at 4 times MIC measured after 2 hrs by time-kill assay; format: functional, organism-based

CCCCCCC[C@@H](O)CC(=O)N[C@H](CCN)C(=O)N[C@H]1CCNC(=O)[C@H]([C@@H](C)O)NC(=O)[C@H](CCN)NC(=O)[C@H](CCN)NC(=O)[C@H]([C@@H](C)O)NC(=O)[C@@H](Cc2ccccc2)NC(=O)[C@H](CCN)NC1=O
Activity (Escherichia coli [1]): Below limit of detection | MIC (Escherichia coli [2]): 1 µg/mL (≈ 0.98 µM) | MIC (Escherichia coli [3]): ≤ 0.06 µg/mL | MIC (Escherichia coli [4]): ≤ 0.06 µg/mL | fraction unbound at 6 h, 2 µM [5]: 0.147 | Activity [6]: Toxic | MIC (Escherichia coli [7]): 4 µg/mL (≈ 3.92 µM) | MIC (Pseudomonas aeruginosa [8]): 0.25 µg/mL (≈ 0.245 µM) | MIC (Acinetobacter baumannii): 8 µg/mL (≈ 7.84 µM) | MIC (Escherichia coli [9]): ≤ 0.06 µg/mL | MIC (Klebsiella pneumoniae [10]): 4 µg/mL (≈ 3.92 µM) | MIC (Escherichia coli [11]): 1 µg/mL (≈ 0.98 µM) | half-life [12]: 3.7 h | MIC (Klebsiella pneumoniae [13]): 1 µg/mL (≈ 0.98 µM) | MIC (Escherichia coli [14]): 0.5 µg/mL | MIC (Escherichia coli [15]): 0.125 µg/mL | LD50 at 168 h [16]: 12.4 mg/kg | MIC (Staphylococcus aureus): > 64 µg/mL | Activity (Escherichia coli [17]): inactive | MIC (Klebsiella pneumoniae [18]): 8 µg/mL (≈ 7.84 µM) | AUC(0-inf) [19]: 17600 ng·h/mL | MIC (Escherichia coli [20]): ≤ 0.06 µg/mL | MIC [21]: 64 µg/mL (≈ 62.7 µM) | selectivity ratio [22]: 828 | Activity (Escherichia coli [23]): Active | IC50 at 72 h [24]: 414 µg/mL (≈ 406 µM) | MIC (Escherichia coli [25]): ≤ 0.06 µg/mL | Activity (Lipopolysaccharide (LPS)): Dose-Dependent Effect | MIC [26]: > 64 µg/mL | MIC (Pseudomonas aeruginosa [27]): 0.5 µg/mL (≈ 0.49 µM) | MIC (Escherichia coli [28]): 0.5 µg/mL (≈ 0.49 µM) | Activity [29]: Non-Toxic | MIC (Escherichia coli [30]): 0.5 µg/mL | Activity (Escherichia coli [31]): Active

Reference: ChEMBL document CHEMBL5380795, “Design, Synthesis, and Bioactivity Investigation of Cyclic Lipopeptide Antibiotics Containing Eight to Nine Amino Acids” (J Med Chem, 2023)
